{
  "source": "patent US7968526B2",
  "about": "“Antisense oligonucleotides directed to ribonucleotide reductase R2 and uses thereof in the treatment of cancer” (Lorus Therapeutics Inc., priority 2003, dated 2011)",
  "key": {"[1]": {"test_system": "human Burkitt's lymphoma (Raji) cells", "assay": "Survival of SCID mice bearing human Burkitt's lymphoma (Raji)", "format": "in vivo, human cells in mice", "protocol": "Mice with established human Burkitt's lymphoma tumours were treated every second day with either saline or SEQ ID NO:1 for 44 days as described above. The control group mice all died from disease progression by day 20. At day 44, the SEQ ID NO:1 mice continued treatment on a weekly basis until stopping the treatment at day 73.\nAs an additional test of efficacy SEQ ID NO:1 was administered to SCID mice bearing active Burkitt's lymphoma (FIG. 30). Viable human Burkitt's lymphoma (Raji) cells (5×10^6) collected from subconfluent logarithmically growing cultures were injected i.v. into each animal and disease was allowed to establish for 2 days. SEQ ID NO:1, SEQ ID NO:3 and SEQ ID NO:2, in normal saline were administered by tail vein injection every second day at a dose of 10 mg/kg. At day 40 the treatment schedule was reduced to 10 mg/kg every 3 days. Control animals received saline alone, without oligonucleotide. Survival is presented as a percentage of the starting number of mice over time."}, "[2]": {"assay": "Acute intravenous toxicity study in the monkey", "format": "in vivo", "settings": "rhesus monkeys", "protocol": "Intravenous infusion of SEQ ID NO:1 for 24 hours at doses up to 80 mg/kg/day (984 mg/m^2/day) was well-tolerated by rhesus monkeys. […] These effects indicate an apparent inhibition of the intrinsic coagulation pathway, and modest activation of the alternative complement pathway, respectively. These treatment-related changes were typical class effects of phosphorothioate oligonucleotide administration."}, "[3]": {"assay": "Phase I study of SEQ ID NO:1 by continuous intravenous infusion in patients with advanced cancer: toxicity and response", "protocol": "Pharmacokinetic parameters were assessed. SEQ ID NO:1 was administered using a portable infusion pump in cycles of 21 days CVI followed by one week of rest. […] Doses were doubled in cohorts of 1-3 patients until the appearance of Gr 1 toxicity, with subsequent escalation of 20-30% in cohorts of 3 patients. DLT was defined as Gr 4 neutropenia lasting 3 days or with fever; Gr 4 thrombocytopenia (T) or Gr 3 T with Gr 1 bleeding; or Gr 3 non-hematologic toxicity."}, "[4]": {"test_system": "A2058 human skin cancer cells", "assay": "A2058 melanoma growth in CD-1 nude mice (3.2)", "format": "in vivo, human cells in mice", "protocol": "Treatments lasted for 14 days thereafter. Antitumour activities were estimated by the inhibition of tumour volume, which was measured with a caliper on four different occasions over the treatment period. Each point represents mean tumour volume calculated from 5 animals per experimental group. […] Control animals (control) received saline alone for the same period. At the end of the treatments, the animals were sacrificed, tumours were excised and their weights were measured. Each bar represents mean tumour weight calculated from 6 animals per experimental group. […] Treatments lasted for 24 days thereafter. Antitumour activities were estimated by the inhibition of tumour volume, which was measured with a caliper at two-day intervals over the treatment period. Each point represents mean tumour volume calculated from 4 animals per experimental group. […] Treatments lasted for 24 days thereafter. Antitumour activities were estimated by the inhibition of tumour volume, which was measured with a caliper at two-day intervals over the treatment period. Each point represents mean tumour volume calculated from 4 animals per experimental group. […] Each point represents mean tumour volume calculated from 5 animals per experimental group. […] Antitumour activities were estimated by the inhibition of tumour volume, which was measured with a caliper on four different occasions over 16-day period. […]"}, "[5]": {"settings": "Cycle 1, 18.5 mg/m^2/day 21 day CVI, 2 patients"}, "[6]": {"settings": "Cycle 1, 74 mg/m^2/day 21 day CVI, 1 patient"}, "[7]": {"settings": "Cycle 1, 148 mg/m^2/day 21 day CVI, 6 patients"}, "[8]": {"settings": "Cycle 1, 185 mg/m^2/day 21 day CVI, 9 patients"}, "[9]": {"settings": "Cycle 1, 222 mg/m^2/day 21 day CVI, 7 patients"}},
  "note": "Entries after “also recorded” stand apart in the source; their conditions may differ.",
  "data": [
    {"substance": "5′-GGCTAAATCGCTCCACCAAG-3′ (all phosphorothioate, sugars by position and methylation of C not given here) [SEQ ID NO: 1, fully phosphorothioated antisense oligonucleotide that hybridizes to the coding region of R2 mRNA]", "values": [
      {"measurement": "Survival of mice", "setting": "[1]; SCID mice (Example 7, FIG. 30), 10 mg/kg i.v. every second day, from day 40 every 3 days, 10 mg/kg", "result": "survived to the end of the study; also recorded: dramatic increase in survival time of mice well beyond the treatment period"},
      {"measurement": "Survival of mice", "setting": "[1]; SCID mice, 10 mg/kg i.v. every second day, stopped at day 42, sacrificed day 73, untreated all died within 23 days", "result": "survived beyond day 73 except one mouse, which died at day 69"},
      {"measurement": "Survival of mice", "setting": "[1]; second independent study, every second day for 44 days then weekly until day 73, controls all died by day 20", "result": "All mice survived to the end of the experimental period (140 days)"},
      {"measurement": "Clinical signs, body weight, blood pressure, heart rate, serum biochemistry, haematology", "setting": "[2]; 24 hour i.v. infusion, any dose", "result": "No treatment-related clinical signs or changes in body weight, blood pressure, heart rate, serum biochemistry or haematology parameters"},
      {"measurement": "Deaths", "setting": "[2]; 24 hour i.v. infusion, doses up to 80 mg/kg/day", "result": "no deaths during the study"},
      {"measurement": "Complement split product Bb", "setting": "[2]; end of infusion at 20, 40, and 80 mg/kg/day", "result": "slight treatment-related increases in complement split product Bb"},
      {"measurement": "APTT", "setting": "[2]; end of infusion at 40 and 80 mg/kg/day", "result": "Mild treatment-related changes in APTT"},
      {"measurement": "Tolerability", "setting": "[2]; intravenous infusion for 24 hours at doses up to 80 mg/kg/day (984 mg/m^2/day)", "result": "well-tolerated"},
      {"measurement": "DLT: Gr 3 fatigue", "setting": "[3]; 148 mg/m^2/day", "result": "1/6"},
      {"measurement": "Tolerability at the recommended phase II dose", "setting": "[3]; 185 mg/m^2/day", "result": "well tolerated by 11 patients"},
      {"measurement": "DLT: Gr 4 transaminase elevation", "setting": "[3]; 222 mg/m^2/day", "result": "2/6"},
      {"measurement": "recommended phase II dose", "setting": "[3]; 21 days CVI followed by one week of rest", "result": 185, "unit": "mg/m^2/day"},
      {"measurement": "maximum tolerated dose (MTD)", "setting": "[3]; 21 days CVI followed by one week of rest, patients with advanced malignancies", "result": 222, "unit": "mg/m^2/day"},
      {"measurement": "No. of Patients with Grade of Toxicity: Anorexia Grade 1", "setting": "[3]; [5]", "result": 1},
      {"measurement": "No. of Patients with Grade of Toxicity: Fatigue Grade 1", "setting": "[3]; [5]", "result": 1},
      {"measurement": "No. of Patients with Grade of Toxicity: Anorexia Grade 1", "setting": "[3]; [6]", "result": 1},
      {"measurement": "No. of Patients with Grade of Toxicity: Fatigue Grade 1", "setting": "[3]; [6]", "result": 1},
      {"measurement": "No. of Patients with Grade of Toxicity: Nausea Grade 1", "setting": "[3]; [6]", "result": 1},
      {"measurement": "No. of Patients with DLT (Table 10)", "setting": "[3]; [7]", "result": 1},
      {"measurement": "No. of Patients with Grade of Toxicity: Anorexia Grade 1", "setting": "[3]; [7]", "result": 1},
      {"measurement": "No. of Patients with Grade of Toxicity: Anorexia Grade 2", "setting": "[3]; [7]", "result": 1},
      {"measurement": "No. of Patients with Grade of Toxicity: Fatigue Grade 1", "setting": "[3]; [7]", "result": 1},
      {"measurement": "No. of Patients with Grade of Toxicity: Fatigue Grade 2", "setting": "[3]; [7]", "result": 1},
      {"measurement": "No. of Patients with Grade of Toxicity: Fatigue Grade 3 (*DLT)", "setting": "[3]; [7]", "result": "1*"},
      {"measurement": "No. of Patients with Grade of Toxicity: Nausea Grade 2", "setting": "[3]; [7]", "result": 1},
      {"measurement": "No. of Patients with Grade of Toxicity: Neutropenia Grade 3", "setting": "[3]; [7]", "result": 1},
      {"measurement": "No. of Patients with Grade of Toxicity: Anorexia Grade 1", "setting": "[3]; [8]", "result": 2},
      {"measurement": "No. of Patients with Grade of Toxicity: Fatigue Grade 1", "setting": "[3]; [8]", "result": 3},
      {"measurement": "No. of Patients with Grade of Toxicity: Fatigue Grade 2", "setting": "[3]; [8]", "result": 2},
      {"measurement": "No. of Patients with Grade of Toxicity: Nausea Grade 1", "setting": "[3]; [8]", "result": 3},
      {"measurement": "No. of Patients with DLT (Table 11)", "setting": "[3]; [9]", "result": 2},
      {"measurement": "No. of Patients with Grade of Toxicity: Anemia Grade 2", "setting": "[3]; [9]", "result": 2},
      {"measurement": "No. of Patients with Grade of Toxicity: Anorexia Grade 2", "setting": "[3]; [9]", "result": 1},
      {"measurement": "No. of Patients with Grade of Toxicity: Bilirubin Grade 2", "setting": "[3]; [9]", "result": 1},
      {"measurement": "No. of Patients with Grade of Toxicity: Bilirubin Grade 4 (*DLT)", "setting": "[3]; [9]", "result": "1*"},
      {"measurement": "No. of Patients with Grade of Toxicity: Fatigue Grade 1", "setting": "[3]; [9]", "result": 3},
      {"measurement": "No. of Patients with Grade of Toxicity: Fatigue Grade 2", "setting": "[3]; [9]", "result": 1},
      {"measurement": "No. of Patients with Grade of Toxicity: Nausea Grade 1", "setting": "[3]; [9]", "result": 3},
      {"measurement": "No. of Patients with Grade of Toxicity: Neutropenia Grade 2", "setting": "[3]; [9]", "result": 1},
      {"measurement": "No. of Patients with Grade of Toxicity: Rash Grade 2", "setting": "[3]; [9]", "result": 1},
      {"measurement": "No. of Patients with Grade of Toxicity: Transaminases Grade 2", "setting": "[3]; [9]", "result": 1},
      {"measurement": "No. of Patients with Grade of Toxicity: Transaminases Grade 4 (*DLT)", "setting": "[3]; [9]", "result": "2*"},
      {"measurement": "Hematologic toxicity", "setting": "[3]; doses 18.5 to 222 mg/m^2/day", "result": "mild"},
      {"measurement": "Number of DLTs observed", "setting": "[3]; doses 18.5 to 222 mg/m^2/day", "result": "Three DLTs were observed in 25 patients assessable for toxicity"},
      {"measurement": "Other serious toxicities: Gr 3 non-neutropenic infection", "setting": "[3]; doses 18.5 to 222 mg/m^2/day", "result": 2, "unit": "patients"},
      {"measurement": "Other serious toxicities: bowel obstruction", "setting": "[3]; doses 18.5 to 222 mg/m^2/day", "result": 1, "unit": "patient"},
      {"measurement": "common (Gr 1-2) non-hematologic toxicities: anorexia", "setting": "[3]; doses 18.5 to 222 mg/m^2/day", "result": 42, "unit": "%"},
      {"measurement": "common (Gr 1-2) non-hematologic toxicities: fatigue", "setting": "[3]; doses 18.5 to 222 mg/m^2/day", "result": 69, "unit": "%"},
      {"measurement": "common (Gr 1-2) non-hematologic toxicities: nausea", "setting": "[3]; doses 18.5 to 222 mg/m^2/day", "result": 38, "unit": "%"},
      {"measurement": "Tumour response: stable disease", "setting": "[3]; patients with advanced cancer, after 2 cycles", "result": "Four patients had stable disease (SD) after 2 cycles"},
      {"measurement": "Inhibitory effect on tumour growth (tumour volume, FIG. 18A)", "setting": "[4]; A2058, CD-1 nude mice, 10 mg/kg i.v. every other day, 24 days", "result": "strong inhibitory effects on the growth of human melanoma"},
      {"measurement": "Inhibition of tumour weight", "setting": "[4]; Human Melanoma", "result": "~80", "unit": "%"}
    ]}
  ]
}
